Experiment [1] deals with lung cancer cell lines (HoP62). The experiment is described as follows: In vitro cytotoxicity, SRB assay, lung cancer Hop62. To be noted: Homo sapiens, HOP-62. The experiment is classed as cell-based, human. From the text:
(§1) The C8-linked benzylidineanthracenone-PBD hybrids have been tested against eight human tumor cell lines derived from seven cancer types (breast, ovarian, colon, prostate, cervix, lung and oral cancer). For each compound, dose response curves for individual cell lines have been measured at a minimum of five concentrations at 10 fold dilutions. A protocol of 48 hrs continuous drug exposure has been used, and a sulforhodamine B (SRB) protein assay was used to estimate cell viability or growth. The results are expressed as percent of cell growth determined relative to that of untreated control cells. The GI50 values are the concentration for 50% cell growth inhibition (GI50) compared with the control has been calculated.
(In general: In SRB staining, fixed cells bind dye roughly in proportion to their protein.)

The test system of experiment [2] is prostate cancer cell lines (PC3). The experiment is described as follows: In vitro cytotoxicity, SRB assay, prostate cancer PC-3. In kind it is cell-based, human. The note with it: Homo sapiens.
Description: as §1

The subject of experiment [3] is duplex-form calf thymus DNA (CT-DNA). Description: Thermal denaturation studies with calf thymus DNA. In kind it is binding. The note with it: [PBD]:[DNA] molar ratio 1:5, CT-DNA 100 μM, ligand 20 μM, pH 7.00. As to the method: Compounds were subjected to thermal denaturation studies with duplex-form calf thymus DNA (CT-DNA) using an adaptation of a reported procedure. Working solutions in aqueous buffer (10 mM NaH2PO41Na2HPO4, 1 mM Na2EDTA, pH 7.00±0.01) containing CT-DNA (100 μm in phosphate) and the PBD (20 μm) were prepared by addition of concentrated PBD solutions in DMSO to obtain a fixed [PBD]/[DNA] molar ratio of 1:5. The DNA-PBD solutions were incubated at 37° C. for 0, 18, and 36 h prior to analysis. Samples were monitored at 260 nm using a Beckman DU-7400 spectrophotometer fitted with high performance temperature controller, and heating was applied at 1° C. min^−1 in the 40-90° C. range. DNA helix→coil transition temperatures (Tm) were obtained from the maxima in the d(A260)/dT derivative plots. Results are given as the mean±standard deviation from three determinations and are corrected for the effects of DMSO co-solvent using a linear correction term. Drug-induced alterations in DNA melting behaviour are given by: ΔTm=Tm(DNA+PBD)−Tm (DNA alone), where the Tm value for the PBD-free CT-DNA is 69.0±0.01.
For a 1:5 molar ratio of [PBD]/[DNA], where CT-DNA concentration=100 μM and ligand concentration=20 μM in aqueous sodium phosphate buffer [10 mM sodium phosphate+1 mM EDTA, pH 7.00±0.01]. The ΔTm for PBD hybrids 5b, 5c, 5d, 5h, 5m and 5r at a [PBD]:[DNA] molar ratio of 1:5 increased to a value of 7.5° C., 9.3° C., 8.9° C., 8.0° C., 7.1° C., and 8.4° C. after 18 h incubation respectively.

In experiment [4] the test system is lung cancer cell lines (A549). The experiment is described as follows: In vitro cytotoxicity, SRB assay, lung cancer A-549. In kind it is cell-based, human. To be noted: Homo sapiens.
Description: as §1

Experiment [5] has as its system ovarian cancer cell lines (A2780). Description: In vitro cytotoxicity, SRB assay, ovarian cancer A2780. To be noted: Homo sapiens. In kind it is cell-based, human.
Description: as §1

The subject of experiment [6] is cervix cancer cell lines (SiHa). Description: In vitro cytotoxicity, SRB assay, cervix cancer SiHa. In kind it is cell-based, human. The note with it: Homo sapiens.
Description: as §1

Experiment [7] relates to breast cancer cell lines (MCF7). The experiment is described as follows: In vitro cytotoxicity, SRB assay, breast cancer MCF7. The note with it: Homo sapiens. In kind it is cell-based, human.
Description: as §1

Experiment [8] has as its system oral cancer cell lines (KB). Description: In vitro cytotoxicity, SRB assay, oral cancer KB. In kind it is cell-based, human. The note with it: Homo sapiens.
Description: as §1

The test system of experiment [9] is colon cancer cell lines (Colo205). Description: In vitro cytotoxicity, SRB assay, colon cancer Colo205. In kind it is cell-based, human. The note with it: Homo sapiens, COLO 205.
Description: as §1

Molecules are shown by their SMILES. Like-named read-outs stand apart in the source and are kept apart here.

Broadly, the GI50 is the concentration giving 50% growth inhibition. As to `COc1cc(C=C2c3ccccc3C(=O)c3ccccc32)ccc1OCCCOc1cc2c(cc1OC)C(=O)N1CCC[C@H]1C=N2` [5b, 7-methoxy-8-(3-{2-methoxy-4-[(10-oxo-9,10-dihydro-9-anthracenyliden)methyl]phenoxy}propoxy)-(11aS)-1,2,3,11a-5H-pyrrolo[2,1-c][1,4]benzodiazepin-5-one], the GI50 in experiment [1] (Lung Hop62, 48 hrs continuous drug exposure, SRB, read-out: GI50) was 190 nM; in [1] (lung cancer cell lines (HoP62), exposure period of at least 48 hrs, read-out: GI50 (range for the group)) it was 170 to 260 nM; in [2] (Prostate PC-3, 48 hrs continuous drug exposure, SRB, read-out: GI50) it was 180 nM; in experiment [2] (prostate cancer cell lines (PC3), exposure period of at least 48 hrs, read-out: GI50 (range for the group)), 150 to 2200 nM; in experiment [4] (A549, Lung A-549, 48 hrs continuous drug exposure, SRB, read-out: GI50) it was 1760 nM; in experiment [4] (lung cancer cell lines (A549), exposure period of at least 48 hrs, read-out: GI50 (range for the group)), 155 to 1940 nM. Besides, the GI50 was 148 nM in [5] (Ovarian A2780, 48 hrs continuous drug exposure, SRB, read-out: GI50); 148 to 168 nM in [5] (ovarian cancer cell lines (A2780), exposure period of at least 48 hrs, read-out: GI50 (range for the group)); 2200 nM in [6] (Cervix SiHa, 48 hrs continuous drug exposure, SRB, read-out: GI50); 2200 to 31000 nM in experiment [6] (cervix cancer cell lines (SiHa), exposure period of at least 48 hrs, read-out: GI50 (range for the group)); 140 nM in experiment [7] (Breast MCF7, 48 hrs continuous drug exposure, SRB, read-out: GI50); 90 to 180 nM in [7] (breast cancer cell lines (MCF7), exposure period of at least 48 hrs, read-out: GI50 (range for the group)). For the same compound, the GI50 in experiment [8] (Oral KB, 48 hrs continuous drug exposure, SRB, read-out: GI50) is 190 nM; in [8] (oral cancer cell lines (KB), exposure period of at least 48 hrs, read-out: GI50 (range for the group)), 180 to 2500 nM; in experiment [9] (Colon Colo205, 48 hrs continuous drug exposure, SRB, read-out: GI50), 110 nM; in experiment [9] (colon cancer cell lines (Colo205), exposure period of at least 48 hrs, read-out: GI50 (range for the group)), 110 to 140 nM. The “ΔTm, drug-induced shift in DNA melting temperature” value in experiment [3] (0 h incubation at 37° C.) was 6.1 °C; in [3] (18 h incubation at 37° C.), 7.5 °C.

(Values after patent US8318726B2, “Benzylidineanthracenone linked pyrrolobenzodiazepine hybrids useful as anticancer agents and process for the preparation thereof” (Council of Scientific & Industrial Research, priority 2010, dated 2012).)
